# Test results as given in US20230321083A1, “Inhibitors of GPR174 and Uses Thereof” (Omeros Corporation, priority 2016, published 2023).
# Values joined by “and” are separate entries in the source; they are usually repeats but may differ in a detail not shown here. Equal entries are not always repeated.
# Tests used:
# Format in all cases: cell-based
# CHRM1 = test: Cellular Redistribution Assay (CRA) against CHRM1; conditions: FIG. 5B
# From the text: (§1) The inventors used a CRA similar to that described in U.S. Pat. No. 7,309,576 and O'Dowd et al., J. Biomol. Screen. 12:175-85, 2007 to identify compounds that are capable of interacting with GPR174 using a library of approximately 370,000 chemical entities. Briefly described, the CRA assay described in U.S. Pat. No. 7,309,576 involves artificially inserting a NLS into the dopamine D1 receptor (DRD1), which allows the receptor to traffic from the cell membrane to the cell interior, and that the binding of antagonists to the receptor retained the receptor at the cell surface, while removal of the ligand allowed the receptor to continue to internalize from the cell surface. Both antagonists and agonists that selectively bound the receptor retained the receptor on the plasma membrane. GPR174 constructs were generated for use in a CRA-based compound screening assay. From this screen, the inventors initially identified compounds of formula I-VI, as described herein and included in TABLE 1.
# The inventors also sought to validate that the compounds identified using the CRA are modulatory compounds. To this end, the above-described CRA was used to screen a library for compounds that interact with three control non-orphan receptors, and the results of this screen were compared to the results of screening the same library for compound that were identified using a Fluorometric Imaging Plate Reader (FLIPR) assay, a conventional technique commonly used to identify compounds interacting with non-orphan GPCRs signaling through Ca+. Three non-orphan GPCRs—Muscarinic acetylcholine receptor M1 (CHRM1), Adrenergic receptor alpha 1a (ADRA1a), and Neuropeptide S receptor (NPSR)—were screened against a 10,000-compound GPCR-focused library. Thirty interacting compound “hits” were identified using the CRA, and eighty-one hits were identified using the FLIPR for the CHRM1 receptor; 9 CRA hits and 29 FLIPR hits for the NPS receptor were identified; and 110 CRA hits and 110 FLIPR hits for ADRA1a.
# In addition, the CRA can also provide the relative potencies of compounds against the target receptor.
# GPR174 [1] = biological target: T1, GPR174 (Homo sapiens, UniProt Q9BXC1); test: Cellular Redistribution Assay (CRA) against GPR174; parameters: fused on or other part: No tag or reporter is given; conditions: for dose-response in CRA against GPR174: FIG. 5A; for EC50: multiple values = separate experiments
# From the text: One method for identifying compounds capable of modulating a receptor is using a cellular redistribution assay (“CRA”). Exemplary CRA methods are found in U.S. Pat. No. 7,309,576 issued to O'Dowd et al. and in O'Dowd et al., J. Biomol. Screen. 12:175-85, 2007. […] Incorporation of the NLS alters the cellular localization of the GPCR, such that the majority of the NLS-modified receptor is present in the cell interior. An NLS-modified GPCR, when interacting with a functionally active compound, is mostly localized on the cell surface. Thus, it becomes possible to identify receptor modulators without knowledge of the endogenous ligand or a surrogate ligand.
# The inventors have identified a number of compounds that inhibit GPR174 using a CRA assay similar to that described in U.S. Pat. No. 7,309,576 and in O'Dowd et al., J. Biomol. Screen. 12:175-85, 2007. These compounds are described in detail below.
# as §1
# Target sequence in this assay (Q9BXC1 1-290 limits assumed): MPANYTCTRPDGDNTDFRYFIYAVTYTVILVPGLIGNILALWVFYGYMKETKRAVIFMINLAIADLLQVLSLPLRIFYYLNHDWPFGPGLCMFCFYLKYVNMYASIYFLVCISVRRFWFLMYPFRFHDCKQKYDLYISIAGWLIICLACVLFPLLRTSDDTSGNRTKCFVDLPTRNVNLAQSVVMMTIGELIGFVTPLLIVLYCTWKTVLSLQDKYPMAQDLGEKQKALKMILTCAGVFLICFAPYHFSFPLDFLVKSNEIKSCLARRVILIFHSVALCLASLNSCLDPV
# ADBR2 = biological target: T2, ADBR2 (Homo sapiens, UniProt P07550); test: CRE-Luc reporter Gs signaling assay, control receptor ADBR2
# T2 construct: host or cells: HEK293 or CHO cell lines (ATCC)
# T2 sequence (P07550 whole entry): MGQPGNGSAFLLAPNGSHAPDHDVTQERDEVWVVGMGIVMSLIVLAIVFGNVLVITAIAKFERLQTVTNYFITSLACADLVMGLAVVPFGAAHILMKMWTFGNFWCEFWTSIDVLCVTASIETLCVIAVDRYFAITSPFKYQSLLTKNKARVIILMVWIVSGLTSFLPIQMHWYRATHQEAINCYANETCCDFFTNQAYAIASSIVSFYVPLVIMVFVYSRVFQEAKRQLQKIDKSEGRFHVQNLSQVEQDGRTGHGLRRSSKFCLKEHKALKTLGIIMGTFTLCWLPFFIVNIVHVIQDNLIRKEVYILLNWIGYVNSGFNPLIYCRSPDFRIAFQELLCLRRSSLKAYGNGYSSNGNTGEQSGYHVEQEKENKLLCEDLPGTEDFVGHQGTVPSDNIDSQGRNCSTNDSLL
# Protocol: (§2) Compounds were tested in the reporter system with increasing concentrations of GPR174-interacting compounds. GPR174 construct pCMV6-XL4-GPR174 or ADBR2, reporter of interest, pCRE-Luc or GL4.29 (3000 ng), and TK-renilla as an internal control (10 ng) with lipofectamine 2000 (60 ug) (Invitrogen, CA) according to the manufacturer's directions.
# (§3) The DNA/lipofectamine 2000 mix (3000 μL) was incubated at room temperature for 30 minutes and then added into a 10 cm culture dish (Corning, NY) containing 70-90% confluent cultured cells, typically HEK293 or CHO cell lines (ATCC, VA), in 15 mL of media. The cells were further incubated for 4-6 hours at 37° C. and then media were removed and cells were detached with 2 mL trypsin (Life Technologies, CA). Media (26 mL) were added to the detached cells and 120 μL of transfected cells were transferred to each well on a 96-well plate. Increasing concentration of each compound in DMSO (1.2 μl) was added to the cells after plating into the 96-well plate. The cells were further incubated at 37° C. for various times. The media were removed and the cells lysed. Luciferase and renilla activities were measured with the Dual-luciferase assay system (Promega, WI) according to the manufacturer's directions. Typically, lysis buffer (25 μL) was added to the cells and incubated at room temperature for 20-30 minutes to allow for the cells to lyse. The lysate (10 μL) was measured for luciferase and renilla activity with LARII and Stop&Glo reagent (50 μL each) with a SpectraMax L (Molecular Devices, CA). Data were analyzed with either Excel (Microsoft, WA) or Prism 4.03 (GraphPad, CA).
# (§4) ADBR2 is a GPCR, like GPR174, that activates the Gs signaling pathway.
# GPR174 [2] = biological target: T1, GPR174; test: CRE-Luc reporter Gs signaling assay, cells transfected with GPR174; parameters: host or cells: HEK293 or CHO cell lines (ATCC); conditions: for effect on Gs pathway in the presence of GPR174: CRE-Luc reporter; for nature of compound in GPR174 signaling assay: human GPR174 with pCRE-Luc
# Protocol: as §2, §3, §4
# Target sequence in this assay (Q9BXC1 whole entry, the tested form may be a part): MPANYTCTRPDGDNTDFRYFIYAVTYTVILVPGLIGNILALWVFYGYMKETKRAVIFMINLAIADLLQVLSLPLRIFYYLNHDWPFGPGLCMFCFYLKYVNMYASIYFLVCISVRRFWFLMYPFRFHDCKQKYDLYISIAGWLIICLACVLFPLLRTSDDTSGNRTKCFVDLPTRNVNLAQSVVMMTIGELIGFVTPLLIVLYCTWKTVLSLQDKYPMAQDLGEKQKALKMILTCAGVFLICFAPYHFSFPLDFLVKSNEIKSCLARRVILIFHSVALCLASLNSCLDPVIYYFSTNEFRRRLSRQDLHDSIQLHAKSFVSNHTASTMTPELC
# human PBMCs = test: Cytokines in culture supernatants of stimulated human PBMCs (ELISA / LEGENDplex); conditions: data not shown
# Protocol: The effect of compound #10 on IL-2 and IFN-γ production in human PBMCs was determined as follows. PBMCs from a single donor were adjusted to a density of 2×10^6 cells/mL, stimulated with 100 ng/mL of anti-CD3 and 100 ng/mL of anti-CD28 antibodies and treated with 1 μM, 3 μM, or 10 μM of compound #10. Supernatant from these cells was taken on day 2 post-stimulation and the levels of IL-2 and IFN-γ were determined by ELISA assay using Ready-SET-Go ELISA kits from Affimetrix Ebioscience according to the manufacturer's instructions.
# The effect of compound #10 on IL-2 production in human PBMCs was determined as follows. […] Supernatant from these cells was taken on day 3 post-stimulation and the levels of IL-2 were determined by ELISA assay using Ready-SET-Go™ ELISA kits from Affimetrix Ebioscience and LEGENDplex™ bead-based immunoassays from BioLegend according to the manufacturer's instructions.
# The effect of compound #10 on IL-2 production in human PBMC from each donor was determined as follows. PBMC from each donor were adjusted to a density of 2×10^6 cells/mL, stimulated with 100 ng/mL of anti-CD3 and 100 ng/mL of anti-CD28 antibodies and treated with 30 μM compound #10. Supernatant from these cells was taken on day 2 post-stimulation and the levels of IL-2 were determined by ELISA assay using LEGENDplex™ bead-based immunoassays from BioLegend (San Diego, CA) according to the manufacturer's instructions.
# The effect of compound #10 on the production of a panel of additional cytokines (interleukin 5 (IL-5), interleukin 13 (IL-13), interleukin 6 (IL-6), interleukin 9 (IL-9), interleukin 10 (IL-10), interferon gamma (IFN-γ), tumor necrosis factor alpha (TNF-α), interleukine 17A (IL-17A), interleukin 17F (IL-17F), interleukin 4 (IL-4) and interleukin 22 (IL-22)) in pooled human PBMC obtained from eight donors was determined as follows. PBMC from eight donors were pooled, then adjusted to a density of 2×10^6 cells/mL, stimulated with 100 ng/mL of anti-CD3 and 100 ng/mL of anti-CD28 antibodies and treated with 30 μM compound #10. Supernatant from these cells was taken on day 2 post-stimulation and the levels of IL-5, IL-13, IL-6, IL-9, IL-10, IFN-γ, TNF-α, IL-17A, IL-17F, IL-4 and IL-22 were determined by ELISA using LEGENDplex™ bead-based immunoassays from BioLegend (San Diego, CA) according to the manufacturer's instructions.
effect on Gs pathway in the presence of ADBR2 (ADBR2),effect on Gs pathway in the presence of GPR174 (GPR174 [2]),Human GPR174 CRE Activity: nature of compound (GPR174 [2]),nature of compound in GPR174 signaling assay (GPR174 [2]),Compound,other results
did not inhibit the Gs pathway,inhibited the Gs pathway,,,CCOC(=O)N1CCN(c2cc(N3CCC(C)CC3)c(F)cc2[N+](=O)[O-])CC1 [Compound 1],activity in CRA against CHRM1 (CHRM1): do not show any activity against CHRM1; dose-response in CRA against GPR174 (GPR174 [1]): show a dose-response curve against GPR174
,,Antagonist or allosteric modulator,,CC(=O)c1ccc(N2CCN(C(=O)c3ccc(F)cc3)CC2)c(F)c1 [Compound 3],activity in CRA against CHRM1 (CHRM1): do not show any activity against CHRM1; dose-response in CRA against GPR174 (GPR174 [1]): show a dose-response curve against GPR174
did not inhibit the Gs pathway,inhibited the Gs pathway,,,O=C(c1ccccc1)N1CCN(c2cc(N3CCCCC3)c(F)cc2[N+](=O)[O-])CC1 [Compound 6],IL-2 levels in PBMC cultures (human PBMCs): increased IL-2 levels
did not inhibit the Gs pathway,inhibited the Gs pathway,,,CCOC(=O)N1CCN(c2cc(N3CCCCC3)c(F)cc2[N+](=O)[O-])CC1 [Compound 7],
did not inhibit the Gs pathway,inhibited the Gs pathway,,,O=[N+]([O-])c1cc(F)c(N2CCCCC2)cc1N1CCN(S(=O)(=O)c2ccccc2)CC1 [Compound 11],EC50 (GPR174 [1]): 1.5 µM
,,,,CC1CCN(c2cc(N3CCN(C(=O)c4cccs4)CC3)c([N+](=O)[O-])cc2F)CC1 [Compound 12],EC50 (GPR174 [1]): 0.3 µM
did not modulate the Gs pathway,did not modulate the Gs pathway,Antagonist or allosteric modulator,non-modulators,Cc1ccc(-c2nnc(Nc3ccccc3)c3ccccc23)cc1S(N)(=O)=O [Compound 19],
,,Antgonist or allosteric modulator,non-modulators,Cc1ccccc1Nc1nnc(-c2ccc(C)c(S(N)(=O)=O)c2)c2ccccc12 [Compound 20],activity in CRA against CHRM1 (CHRM1): do not show any activity against CHRM1; dose-response in CRA against GPR174 (GPR174 [1]): show a dose-response curve against GPR174
did not modulate the Gs pathway,did not modulate the Gs pathway,Antagonist or allosteric modulator,non-modulator,Cc1cc(Cc2ccc(NC(=O)c3cccs3)c(C)c2)ccc1NC(=O)c1cccs1 [Compound 21],
did not inhibit the Gs pathway,inhibited the Gs pathway,,,COc1ccc(C2C3=C(CCCC3=O)NC3=C2C(=O)c2ccccc23)cc1 (stereo not drawn) [Compound 22],EC50 (GPR174 [1]): 6.7 µM and 5.3 µM
did not inhibit the Gs pathway,inhibited the Gs pathway,,,CCOc1ccc(C2C3=C(CCCC3=O)NC3=C2C(=O)c2ccccc23)cc1 (stereo not drawn) [Compound 23],
did not inhibit the Gs pathway,inhibited the Gs pathway,,,CCCCOc1ccc(C2C3=C(CCCC3=O)NC3=C2C(=O)c2ccccc23)cc1 (stereo not drawn) [Compound 31],
did not inhibit the Gs pathway,inhibited the Gs pathway,,,O=C1CCCC2=C1C(c1ccc(OCCO)cc1)C1=C(N2)c2ccccc2C1=O (stereo not drawn) [Compound 33],
did not inhibit the Gs pathway,inhibited the Gs pathway,,,O=C1CCCC2=C1C(c1ccc3c(c1)OCCO3)C1=C(N2)c2ccccc2C1=O (stereo not drawn) [Compound 36],
did not inhibit the Gs pathway,inhibited the Gs pathway,,,O=C1CCCC2=C1C(c1ccncc1)C1=C(N2)c2ccccc2C1=O (stereo not drawn) [Compound 42],
,,,inverse agonist,C=C(C)COc1ccc(NC(=O)Nc2ccccc2)cc1 [Compound 56],

Compound,effect on Gs pathway in the presence of ADBR2 (ADBR2),effect on Gs pathway in the presence of GPR174 (GPR174 [2]),Human GPR174 CRE Activity: nature of compound (GPR174 [2]),nature of compound in GPR174 signaling assay (GPR174 [2]),other results
O=C(N/N=C/c1cc(Cl)ccc1O)c1ccncc1 [Compound 57],,,Antagonist or allosteric modulator,GPR174 antagonists or allosteric modulators,EC50 (GPR174 [1]): 5.6 µM
Cc1cc(C(=O)N/N=C/c2cc(Br)ccc2O)c(C)o1 [Compound 58],,,Antagonist or allosteric modulator,GPR174 antagonists or allosteric modulators,EC50 (GPR174 [1]): 3.7 µM
